PubChem BioAssay (NCI)
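1) Cells in 96-well plates. 2) Compound, 48 h, 5 concentrations. 3) Linear interpolation between surrounding doses. 4) Unreached endpoint = highest concentration. GI50 marks 50% less growth. TGI marks complete inhibition of growth.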

Experiments:
Assay in all cases: inhibition of tumour cell growth, NCI panel, 48 h
HCT-15 colon = system: HCT-15 colon
CAKI-1 renal = system: CAKI-1 renal
SW-620 colon = system: SW-620 colon
UACC-257 melanoma = system: UACC-257 melanoma
EKVX NSCLC = system: EKVX NSCLC
M14 melanoma = system: M14 melanoma
OVCAR-4 ovarian = system: OVCAR-4 ovarian
HCT-116 colon = system: HCT-116 colon
SF-539 CNS = system: SF-539 CNS
IGROV1 ovarian = system: IGROV1 ovarian
ACHN renal = system: ACHN renal
HT29 colon = system: HT29 colon
SF-268 CNS = system: SF-268 CNS
HOP-62 NSCLC = system: HOP-62 NSCLC
A498 renal = system: A498 renal
MDA-MB-435 = system: MDA-MB-435
NCI/ADR-RES ovarian = system: NCI/ADR-RES ovarian
MDA-MB-231 breast = system: MDA-MB-231 breast
PC-3 prostate = system: PC-3 prostate

Structure (SMILES)	TGI (HCT-15 colon) [µM]	TGI (CAKI-1 renal) [µM]	TGI (SW-620 colon) [µM]	TGI (UACC-257 melanoma) [µM]	TGI (EKVX NSCLC) [µM]	TGI (M14 melanoma) [µM]	TGI (OVCAR-4 ovarian) [µM]	TGI (HCT-116 colon) [µM]	TGI (SF-539 CNS) [µM]	TGI (IGROV1 ovarian) [µM]	TGI (ACHN renal) [µM]	TGI (HT29 colon) [µM]	TGI (SF-268 CNS) [µM]	TGI (HOP-62 NSCLC) [µM]	TGI (A498 renal) [µM]	TGI (MDA-MB-435) [µM]	TGI (NCI/ADR-RES ovarian) [µM]	TGI (MDA-MB-231 breast) [µM]	TGI (PC-3 prostate) [µM]	GI50 (OVCAR-4 ovarian) [µM]
CCOC(=O)C(C(=O)OCC)c1ccc([N+](=O)[O-])o1	33.6	16.1	9.94	28.1	35.4	26.6	32.4	29	35.9	42.1	22.6	31.2	70.3	> 75.5	–	–	–	–	–	–
Cc1ccc(C(=O)Cn2c(C(=O)/C=C/c3cccs3)nc3ccccc32)cc1	> 100	–	> 100	> 100	–	> 100	> 100	> 100	> 100	> 100	> 100	> 100	> 100	> 100	> 100	> 100	> 100	> 100	> 100	–
C[Si](C)(N[Si](C)(C)OCCc1ccccc1)OCCc1ccccc1	> 100	> 100	> 100	> 100	> 100	> 100	> 100	> 100	–	> 100	> 100	> 100	–	> 100	> 100	> 100	> 100	–	> 100	–
O=C(CCCN1CCC2(CC1)CC(=O)N(N1CCOCC1)C2=O)c1ccc(F)cc1	> 100	> 100	> 100	> 100	–	> 100	–	> 100	> 100	> 100	> 100	> 100	> 100	> 100	> 100	> 100	> 100	> 100	> 100	–
O=C(Nc1cccc(C(F)(F)F)c1)C(=O)C1NC(=S)NC1=O (stereo unspecified)	> 100	> 100	36.5	> 100	> 100	> 100	> 100	> 100	> 100	> 100	> 100	> 100	> 100	> 100	> 100	–	–	–	–	–
O=C1NC(=O)C(C(=O)C(=O)Nc2ccc(Cl)cc2Cl)C(=O)N1	> 100	> 100	> 100	> 100	> 100	> 100	> 100	> 100	–	> 100	> 100	–	–	> 100	> 100	–	–	–	–	–
O=c1c2ccccc2nc2n1-c1ccccc1SC2	> 100	> 100	> 100	> 100	> 100	> 100	> 100	> 100	> 100	> 100	> 100	> 100	> 100	> 100	> 100	–	–	–	–	–
COc1ccc2nc3c([N+](=O)[O-])ccc(NCCCN(C)C)c3c(NCCCN(C)C)c2c1	2.86	3.98	6.22	> 10	5.09	> 10	2.29	–	–	4.07	–	2.56	> 10	3.07	–	> 10	–	2.87	2.24	–
CCOP12(OCC)NC(=O)OC1(C(F)(F)F)c1ccccc1O2 (stereo unspecified)	> 100	–	–	> 100	–	> 100	> 100	> 100	> 100	> 100	> 100	> 100	> 100	–	–	–	–	–	–	–
Cc1ccc(-c2n[nH]c(=O)n2NC(=O)c2ccccc2C(=O)O)cc1	> 100	> 100	> 100	> 100	–	> 100	–	> 100	> 100	> 100	> 100	> 100	> 100	> 100	–	> 100	> 100	> 100	> 100	–
COc1ccc(-c2cc(-c3ccc(O)cc3O)c(C#N)c(=O)[nH]2)cc1	> 100	64.1	50.3	70.8	41.6	35.4	60	38.7	34.7	–	> 100	34.6	73.5	41.1	–	36.4	46.2	36.8	35.4	–
Cc1ccc(C(c2c(O)c3ccccc3n(-c3ccccc3)c2=O)c2c(O)c3ccccc3n(-c3ccccc3)c2=O)cc1	> 100	> 100	> 100	–	> 100	–	> 100	> 100	> 100	–	> 100	–	> 100	> 100	–	–	–	–	–	–
NC(=O)/C(=N\NC(=O)C[n+]1ccccc1)C1NC(=O)NC1=O (stereo unspecified)	> 100	> 100	> 100	> 100	> 100	> 100	> 100	> 100	> 100	> 100	> 100	> 100	> 100	> 100	> 100	–	–	–	–	–
COC(=O)C(C)(C)[C@@H]1OC(=O)N(S(=O)(=O)c2c(C)cc(C)cc2C)[C@H]1C(C)C	> 100	–	> 100	> 100	> 100	> 100	> 100	> 100	> 100	> 100	> 100	> 100	> 100	> 100	–	> 100	> 100	> 100	> 100	–
COc1cc2c(cc1OCCCOS(C)(=O)=O)N=C[C@@H]1CCCN1C2=O	> 100	> 100	> 100	> 100	> 100	> 100	> 100	> 100	> 100	> 100	> 100	> 100	> 100	–	> 100	> 100	> 100	> 100	–	70.4
COC(=O)[C@H](Cc1c[nH]c2ccccc12)NP(=O)(O)OC[C@H]1O[C@@H](n2cc(C)c(=O)[nH]c2=O)C[C@@H]1N=[N+]=[N-]	> 100	> 100	> 100	> 100	> 100	> 100	> 100	> 100	–	> 100	–	> 100	> 100	> 100	–	> 100	> 100	> 100	> 100	–
O=C(NNC1=NCCCCN1)Nc1ccc(Cl)cc1	> 100	> 100	> 100	> 100	> 100	–	> 100	> 100	> 100	> 100	> 100	> 100	> 100	> 100	> 100	> 100	> 100	–	> 100	–
CCN(CC)CCN(C(=Nc1ccccc1)N1CCCCC1)c1ccccc1	> 100	> 100	> 100	34.7	> 100	21.7	57.8	3.35	40	20.6	–	30.9	> 100	22.2	–	20.6	–	38.8	24.8	–
O=C(CC(C(=O)c1cccs1)c1ccsc1)c1ccccc1 (stereo unspecified)	> 100	> 100	> 100	> 100	> 100	> 100	> 100	> 100	> 100	> 100	> 100	> 100	> 100	> 100	> 100	> 100	80.4	96.9	–	–
COc1cc(/C=N\c2nc(-c3ccc(NS(=O)(=O)c4ccc(Cl)c(OC)c4)cc3)cs2)ccc1O	> 100	> 100	> 100	–	> 100	> 100	> 100	> 100	> 100	> 100	> 100	> 100	> 100	> 100	–	> 100	> 100	–	> 100	–
CCN(CC)C1CCC(C2c3cc4c(cc3OC(N3CCOCC3)C2C)OCO4)CC1 (stereo unspecified)	> 100	> 100	> 100	> 100	> 100	> 69.3	> 100	> 100	57	> 100	> 100	25.7	> 100	> 70.3	60.7	> 100	> 83.1	–	> 100	–
O=C1CC2(CCC3=C(O2)c2ccccc2NC(=O)C3)C(=O)c2ccccc2N1 (stereo unspecified)	> 100	–	> 100	–	> 100	> 100	> 100	> 100	> 100	> 100	> 100	> 100	> 100	> 100	–	–	–	–	–	–
Clc1ccc(CCn2cncn2)cc1	> 100	> 100	> 100	> 100	–	> 100	> 100	> 100	> 100	> 100	> 100	> 100	> 100	> 100	> 100	–	–	–	–	–
CC1(C)C2CC(O)C1CCC2=O (stereo unspecified)	> 100	> 100	–	> 100	–	> 100	> 100	> 100	> 100	–	> 100	> 100	> 100	> 100	> 100	> 100	> 100	> 100	> 100	–
CCSc1cc2c(cc1O)CC[C@@H]1[C@@H]2CC[C@]2(C)[C@@H](O)CC[C@@H]12	23.2	26.4	13.2	30.2	–	–	38.7	32.7	34.3	25	24.9	23	55	30.6	28.9	10.4	26.9	18.8	18.9	–
O=C(c1nc2ccccc2[nH]c1=O)C(O)c1ccco1 (stereo unspecified)	> 100	–	> 100	> 100	> 100	> 100	> 100	> 100	> 100	> 100	> 100	> 100	> 100	> 100	–	–	–	–	–	–
N#CC1=C(c2ccccc2)C(=C2Nc3ccccc3N2)C2S/C(=C\c3ccccc3)C(=O)N2C1=N (stereo unspecified)	10.3	4.01	15.8	15.7	5.2	6.56	6.4	10.9	3.35	4.71	10.1	14.3	6.35	5.1	7.73	–	–	–	–	–
CCOC(=O)Cn1c(=O)c2nc(SC)sc2n(-c2ccccc2)c1=S	> 100	–	> 100	> 100	–	70.4	35.2	> 100	31.6	> 100	43.4	> 100	> 100	57.1	–	> 100	> 100	72.9	84.4	–
C=CCN1COc2c(cc3c4c(cccc24)C(=O)O3)C1	50	49.3	62.7	60.7	92	50.1	> 100	36.7	–	> 100	> 10	51.8	> 100	> 100	52.1	–	–	–	–	–
